# Measured values as given in patent US11564394B2, “Distorted gold (I)-phosphine complexes and methods for use as antifungal agents” (University of Kentucky Research Foundation, priority 2019, dated 2023).
# Read-outs that look alike come from different tables or passages of the source.
# How the values were obtained:
# [1] = tested on: Candida strains B, H, K and L; details: for mode of killing (time-kill): 1× and 2×MIC, 24 h; for decrease of fungal colony forming units (CFU): by the 3 h time point, no increase over 24 h
# Procedure: The protocol for time-kill assays followed methods previously described with minor modifications.^34,90 Overnight cultures were grown in YEPD medium at 35° C. with shaking at 200 rpm. The overnight cultures were diluted in RPMI 1640 medium to an OD600 of 0.125 (˜x10^6 CFU/mL). Then, 200 μL of cells were added to 4.8 mL of RPMI 1640 medium in sterile culture tubes to afford a fungal cell concentration ˜1×10^5 CFU/mL. Compounds were then added to the fungal cells. […] Treated fungal cultures were incubated in the culture tubes at 35° C. with 200 rpm shaking for 24 h. Samples were aliquoted from the different treatments at regular time points (0, 3, 6, 9, 12, and 24 h) and plated in duplicate onto PDA plates. For each time point, cultures were vortexed, 100 μL of culture was aspirated, and 10-fold serial dilutions were made in sterile ddH2O. From the appropriate dilutions, 100 μL of fungal suspension was spread on agar plates and incubated at 35° C. for 48 h before colony counts were determined. Only plates containing between 30 and 300 colonies were counted, making 30 CFU/mL the limit of detection. At 24 h, 50 μL of sterile 2 mM resazurin in phosphate buffered saline (PBS) was added to the treatments and incubated at 35° C. with 200 rpm shaking for 2 h in the dark for visual inspection.
# [2] = tested on: C. albicans ATCC 10231 (strain B); details: subcultures exposed to ½ MIC
# [3] = tested on: C. auris AR Bank # 0390 (strain L) pre-formed biofilm; format: cell-based, Candida auris; details: biofilm treated at 24 h, XTT
# [4] = tested on: Candida spp. biofilms; details: biofilms of Candida spp.
# Procedure: For assays with a pre-formed biofilm, 100 μL of fungal cells were aliquoted in a 96-well plate, leaving one column empty for the sterile control. After 24 h incubation at 37° C., visible biofilms had formed in the well. The biofilm was washed three times with 100 μL of PBS. […] Plates were incubated at 37° C. for 24 h. Finally, the plates were washed three times with PBS before adding 100 μL of XTT dye. The XTT was prepared by dissolving XTT at 0.5 mg/mL concentration in sterile PBS. Before adding to a plate, 1 μL of 10 mM menadione in acetone was added to 10 mL of the 0.5 mg/mL solution of XTT. After addition of XTT (containing menadione), the plates were incubated for 3 h at 37° C. in the dark. 80 μL of liquid from each well was transferred to a new plate and then with the plate reader for absorbance at 450 nm. For these experiments, we determined the sessile MIC (SMIC90), which is defined as the compound concentration required to inhibit the metabolic activity of biofilm by 90% compared to the growth control (Table 3). […] Each assay was performed in duplicate.
# [5] = tested on: C. glabrata ATCC 2001 (strain H); details: subcultures exposed to ½ MIC
# [6] = tested on: C. albicans ATCC 10231 (strain B)
# Procedure: (§1) The protocol for time-kill assays followed methods previously described with minor modifications.^34,90 Overnight cultures were grown in YEPD medium at 35° C. with shaking at 200 rpm. The overnight cultures were diluted in RPMI 1640 medium to an OD600 of 0.125 (˜x10^6 CFU/mL). Then, 200 μL of cells were added to 4.8 mL of RPMI 1640 medium in sterile culture tubes to afford a fungal cell concentration ˜1×10^5 CFU/mL. Compounds were then added to the fungal cells. […] Treated fungal cultures were incubated in the culture tubes at 35° C. with 200 rpm shaking for 24 h. Samples were aliquoted from the different treatments at regular time points (0, 3, 6, 9, 12, and 24 h) and plated in duplicate onto PDA plates. For each time point, cultures were vortexed, 100 μL of culture was aspirated, and 10-fold serial dilutions were made in sterile ddH2O. From the appropriate dilutions, 100 μL of fungal suspension was spread on agar plates and incubated at 35° C. for 48 h before colony counts were determined. Only plates containing between 30 and 300 colonies were counted, making […] the limit of detection. At 24 h, 50 μL of sterile 2 mM resazurin in phosphate buffered saline (PBS) was added to the treatments and incubated at 35° C. with 200 rpm shaking for 2 h in the dark for visual inspection.
# [7] = tested on: C. auris AR Bank #0384 (strain K)
# Procedure: as §1
# [8] = tested on: patients; details: 6 mg daily dose, oral; cited from earlier work
# [9] = tested on: murine and human red blood cells (RBCs)
# Procedure: The RBCs were resuspended in PBS to achieve a cell concentration of on the order of 10^7 cells/mL. Compounds were dissolved at concentration of 3.14 mg/mL (200×) in DMSO. Serial double dilutions were made in DMSO. A 1:100 dilution of compound in PBS was added to 100 of RBCs in a 96-well plate (total volume of 200 μL). Compounds were tested in the range of 0.06-15.6 μg/mL in quadruplicate with 0.5% DMSO and ˜5×10^6 RBCs per tube. The RBCs were also treated with 1% Triton-X® (positive control) and PBS (negative control). The RBCs were treated for 30 min at 37° C. and the absorbance was read at 595 nm. Hemolysis is visually observed by a decrease in optical density of the wells (turbid, dark red to transparent pink). Percent hemolysis (FIG. 5A-B) was calculated using this equation after subtraction of the background absorbance ([…]): […]
# [10] = tested on: Candida biofilms; details: FDA-approved antifungal agents; cited from earlier work
# [11] = tested on: C. auris AR Bank #0390 (strain L); test: Time-kill assay; format: cell-based, Candida auris; details: 1×MIC
compound,measurement,setting,value
"bis-[1,2-bis[(2S,5S)-2,5-dimethylphospholano]benzene]gold(I) [Compound 4]",mode of killing (time-kill),[1],fungicidal
same,decrease of fungal colony forming units (CFU),[1],102 CFU/mL
same,changes in MIC values over fifteen serial passages,[2],no significant changes in MIC values
same,Pre-formed biofilm SMIC90,[3],15.6 µg/mL
same,activity against biofilms,[4],good activity
same,changes in MIC values over fifteen serial passages,[5],no significant changes in MIC values
same,time at which the limit of detection was reached,"[6]; 1×MIC, limit of detection 30 CFU/mL",9 h
same,time at which the limit of detection was reached,"[7]; concentration not specified (tested at 1× and 2×MIC), failed to reach the limit",> 24 h
"CC(=O)OC[C@H]1O[C@@H]([S-])[C@H](OC(C)=O)[C@@H](OC(C)=O)[C@@H]1OC(C)=O.CCP(CC)CC.[Au+] [Auranofin, auranofin, reference compound]",tolerability in patients,[8],well-tolerated
same,Pre-formed biofilm SMIC90,[3],>31.3 µg/mL
same,hemolytic activity,[9]; at 15.6 μg/mL,no hemolytic activity
"bis-[1,2-bis[(2R,5R)-2,5-dimethylfphospholano]benzene]gold(1) [Compound 6]",mode of killing (time-kill),[1],fungicidal
same,decrease of fungal colony forming units (CFU),[1],102 CFU/mL
same,changes in MIC values over fifteen serial passages,[2],no significant changes in MIC values
same,Pre-formed biofilm SMIC90,[3],7.8 µg/mL
same,activity against biofilms,[4],good activity
same,changes in MIC values over fifteen serial passages,[5],no significant changes in MIC values
same,time at which the limit of detection was reached,[6]; 2×MIC,3 h
same,time at which the limit of detection was reached,[7]; 1×MIC,6 h
"C[C@@H]1[C@H](O)[C@@H](C)/C=C/C=C/C=C/C=C/C=C/C=C/C=C/[C@H](O[C@@H]2O[C@H](C)[C@@H](O)[C@H](N)[C@@H]2O)C[C@@H]2O[C@](O)(C[C@@H](O)C[C@@H](O)[C@H](O)CC[C@@H](O)C[C@@H](O)CC(=O)O[C@H]1C)C[C@H](O)[C@H]2C(=O)O [AmB, amphotericin B, reference compound]",Pre-formed biofilm SMIC90,[3],7.8 µg/mL
same,SMIC90 (literature),[10],0.5 to 128 µg/mL
same,time at which the limit of detection was reached,[11],9 h
same,hemolysis,[9]; at 7.8 μg/mL,30-60%
same,hemolysis,[9]; at 15.6 μg/mL,100%
